From patent publication US10919851B2, “2-pyrrolidine phenylhydrazides antibacterial agents” (ABAC THERAPEUTICS, S.L, priority 2016, dated 2021)
≈ marks a conversion by molar mass, not a printed value.

Tests used:
[1] = test system: Klebsiella pneumoniae; test: MIC, standard microtiter dilution method (CLSI M07-A9); type: cell-based; conditions: Cation adjusted Mueller-Hinton Broth, 37° C., 24 hours, read-out: MIC K. pneumoniae
Experimental: (§1) The products of the present invention were tested for their activity against Acinetobacter baumannii (A. baumannii) as well as against the following bacteria: Staphylococcus aureus (S. aureus), Streptococcus pneumoniae (S. pneumoniae), Enterococcus faecium (E. faecium), Pseudomonas aeruginosa (P. aeruginosa), Klebsiella pneumoniae (K. pneumoniae) and Escherichia coli (E. coli). Minimal inhibitory concentrations (MICs) were determined using a standard microtiter dilution method, according to the Clinical and Laboratory Standards Institute (CLSI) procedures, in particular according to […]-A9: “Methods for Dilution Antimicrobial Susceptibility Tests for Bacteria That Grow Aerobically; Approved Standard-Ninth Edition”. Briefly, compounds were dissolved with dimethyl sulfoxide (DMSO) at 12.8 mg/mL. Serial two-fold dilutions of compounds were performed in DMSO and 1 μl of each dilution were transferred into microtiter culture plates, followed by 100 μl of inoculated culture media to give a final microorganism concentration of 5×10^5 colony-forming units/mL. Plates were incubated at 37° C. for 24 hours and MICs determined as the lowest compound concentration that inhibited growth. Media used in determinations were Cation adjusted Mueller-Hinton Broth for all the microorganisms except for S. pneumoniae and E. faecium whose culture media were supplemented with 2.5% of lysed horse blood. Incubations were performed at air atmosphere except S. pneumoniae cultures that were incubated with 5% CO2 atmosphere.

[2] = test system: Escherichia coli; test: as above; type: cell-based; conditions: Cation adjusted Mueller-Hinton Broth, 37° C., 24 hours
Experimental: as §1

[3] = test system: Streptococcus pneumoniae; test: as above; type: cell-based; conditions: media with 2.5% lysed horse blood, 5% CO2, 37° C., 24 hours, read-out: MIC S. pneumoniae
Experimental: as §1

[4] = test system: Pseudomonas aeruginosa; test: as above; type: cell-based; conditions: Cation adjusted Mueller-Hinton Broth, 37° C., 24 hours, read-out: MIC P. aeruginosa
Experimental: as §1

[5] = test system: Acinetobacter baumannii; test: as above; type: cell-based; conditions: Cation adjusted Mueller-Hinton Broth, 37° C., 24 hours
Experimental: as §1

[6] = test system: Enterococcus faecium; test: as above; type: cell-based; conditions: media with 2.5% lysed horse blood, 37° C., 24 hours, read-out: MIC E. faecium
Experimental: as §1

[7] = test system: Staphylococcus aureus; test: as above; type: cell-based; conditions: Cation adjusted Mueller-Hinton Broth, 37° C., 24 hours, read-out: MIC S. aureus
Experimental: as §1

Row | Structure (SMILES) | MIC [1] [µg/mL] | MIC [2] [µg/mL] | MIC [3] [µg/mL] | MIC [4] [µg/mL] | MIC [5] [µg/mL] | MIC [6] [µg/mL] | MIC [7] [µg/mL] | melting point [°C]
1 | NC(=O)N1CCCC1C(=O)NNc1ccc2c(c1)OCCO2 (stereo not drawn) [Example 11, 2-(2-(2,3-dihydrobenzo[b][1,4]dioxin-6-yl) hydrazinecarbonyl)pyrrolidine-1-carboxamide] | > 128 | > 128 | > 128 | > 128 | 8 (≈ 26.1 µM) | > 128 | > 128 | 
2 | COc1ccc(NNC(=O)C2CCCN2C(N)=O)cc1 (stereo not drawn) [Example 10, 2-(2-(4-methoxyphenyl)hydrazinecarbonyl)pyrrolidine-1-carboxamide] | > 128 | > 128 | > 128 | > 128 | 2 (≈ 7.19 µM) | > 128 | > 128 | 
3 | NC(=O)N1CCCC1C(=O)NNc1ccc(OC(F)(F)F)cc1 (stereo not drawn) [Example 7, 2-(2-(4-(trifluoromethoxy)phenyl)hydrazinecarbonyl)pyrrolidine-1-carboxamide] | > 128 | > 128 | > 128 | > 128 | 8 (≈ 24.1 µM) | > 128 | 128 (≈ 385 µM) | 
4 | NC(=O)N1CCCC1C(=O)NNc1ccc(Cl)cc1F (stereo not drawn) [Example 9, 2-(2-(4-chloro-2-fluorophenyl)hydrazinecarbonyl)pyrrolidine-1-carboxamide] | > 128 | > 128 | > 128 | > 128 | 8 (≈ 26.6 µM) | > 128 | > 128 | 
5 | NC(=O)N1CCCC1C(=O)NNc1ccc(F)cc1 (stereo not drawn) [Example 4, 2-(2-(4-fluorophenyl)hydrazinecarbonyl)pyrrolidine-1-carboxamide] | > 128 | > 128 | > 128 | > 128 | 2 (≈ 7.51 µM) | > 128 | > 128 | 140 to 144
6 | NC(=O)N1CCC[C@H]1C(=O)NNc1ccc(F)cc1 [Example 3, (S)-2-(2-(4-fluorophenyl) hydrazinecarbonyl) pyrrolidine-1-carboxamide] | > 128 | > 128 | > 128 | > 128 | 4 (≈ 15 µM) | > 128 | > 128 | 
7 | CN1CC2CC2C1C(=O)NNc1ccc(F)cc1 (stereo not drawn) [Example 26, N′-(4-fluorophenyl)-3-methyl-3-azabicyclo[3.1.0]hexane-2-carbohydrazide] | > 128 | > 128 | > 128 | > 128 | 0.25 (≈ 1 µM) | > 128 | > 128 | 
8 | NC(=O)N1CCC[C@@H]1C(=O)NNc1ccc(F)cc1 [Example 2, (R)-2-(2-(4-fluorophenyl)hydrazinecarbonyl)pyrrolidine-1-carboxamide] | > 128 | > 128 | > 128 | > 128 | 4 (≈ 15 µM) | > 128 | > 128 | 

More lines, now with the values ahead:

Row | MIC [1] [µg/mL] | MIC [2] [µg/mL] | MIC [3] [µg/mL] | MIC [4] [µg/mL] | MIC [5] [µg/mL] | MIC [6] [µg/mL] | MIC [7] [µg/mL] | melting point [°C] | Structure (SMILES)
9 | > 128 | > 128 | > 128 | > 128 | 8 | > 128 | 128 |  | Cl.O=C(NNc1ccc(F)cc1)C1CCCN1C(=O)N1CCNCC1 (stereo not drawn) [Example 18, N′-(4-fluorophenyl)-1-(piperazine-1-carbonyl)pyrrolidine-2-carbohydrazide hydrochloride]
10 | > 128 | > 128 | > 128 | > 128 | 0.25 (≈ 0.901 µM) | > 128 | > 128 |  | O=C(NNc1ccc(F)cc1)[C@@H]1CCCN1CC1CC1 [Example 25, (S)-1-(cyclopropylmethyl)-N′-(4-fluorophenyl)pyrrolidine-2-carbohydrazide]
11 | > 128 | > 128 | > 128 | > 128 | 1 (≈ 4.18 µM) | > 128 | > 128 |  | O=C(NNc1ccc(F)cc1)C1CCCN1O (stereo not drawn) [Example 15, N′-(4-fluorophenyl)-1-hydroxypyrrolidine-2-carbohydrazide]
12 | > 128 | > 128 | > 128 | > 128 | 2 (≈ 7.54 µM) | > 128 | > 128 |  | CC(=O)N1CCC[C@@H]1C(=O)NNc1ccc(F)cc1 [Example 14, (R)-1-acetyl-N′-(4-fluorophenyl)pyrrolidine-2-carbohydrazide]
13 | > 128 | > 128 | > 128 | > 128 | 0.25 (≈ 0.995 µM) | > 128 | > 128 |  | CN1CCCC1(C)C(=O)NNc1ccc(F)cc1 (stereo not drawn) [Example 16, N′-(4-fluorophenyl)-1,2-dimethylpyrrolidine-2-carbohydrazide]
14 | > 128 | > 128 | > 128 | > 128 | 2 | > 128 | > 128 |  | Cl.N=C(N)N1CCCC1C(=O)NNc1ccc(F)cc1 (stereo not drawn) [Example 30, 2-(2-(4-fluorophenyl)hydrazinecarbonyl)pyrrolidine-1-carboximidamide hydrochloride]
